In patent US20260374814A1, “Synthetic Peptide And Construct” (TOAGOSEI CO., LTD, priority 2022, published 2026):
FAM = 5(6)-carboxyfluorescein

Tested on: NSC-34 cells
Assay: Evaluation of Cell Membrane Permeability by Flow Cytometry (transfer of FAM construct into NSC-34 cells)
Type: cell-based
Settings: NSC-34 cells (mouse motor neuron-like hybrid cell line); 20 μM in culture medium; 20 hours at 37 °C, 5% CO2; flow cytometer, detector FL2
Method: As the eukaryotic cells, NSC-34 cells (mouse motor neuron-like hybrid cell line) were used and the cell membrane permeability of the peptides 1 to 3 was analyzed. As a culture medium of the NSC-34 cell, 10% fetal bovine serum (FBS)-containing Dulbecco's modified Eagle's medium (DMEM (Cat No. 044-29765, manufactured by FUJIFILM Wako Pure Chemical Corporation)) was used. The samples 1 to 3 were each dissolved in dimethyl sulfoxide (DMSO) to prepare sample solutions 1 to 3 with a sample concentration of 4 mM. Then, the sample solutions were diluted in the culture medium to prepare 40 μM sample solutions 1 to 3. The aforementioned prepared sample solutions 1 to 3 were used in Examples 1 to 3, and the FAM solution was used in Reference Example 1.
The NSC-34 cell was suspended in the culture medium to prepare a cell suspension of 2×10^5 cells/mL. The cell suspension was added by 1 mL to a well of a commercially available six-hole (well) plate (manufactured by AGC TECHNO GLASS Co., Ltd.) so as to seed the NSC-34 cell to be 2×10^5 cells/well. Next, 1 mL of the 40 μM sample solution 1 was added to the well so that the sample concentration in the culture medium in the well became 20 μM. After that, the six-well plate was left at rest in a cell culture apparatus, and incubated for 20 hours at 37 °C under a 5% CO2 condition.
After the 20-hour incubation, the culture supernatant was removed from the well and the cells in the well were cleaned twice with 1 mL of PBS. Next, 100 μL of the 0.25% trypsin/EDTA solution was added to the well and the incubation was performed for three minutes at 37 °C. After the incubation, 900 μL of the culture medium was added to the well to deactivate the trypsin. Subsequently, the cell suspension in the well was transferred to a tube and the cells were collected. This tube was subjected to five-minute centrifugal separation at 4 °C under a condition of 210×g. […]
Regarding the obtained cells (cell pellet), the cell membrane permeability of the sample 1 was analyzed using a flow cytometer. […]
Using the aforementioned flow cytometer, gating based on forward scatter (FSC) and side scatter (SSC) was performed to set a gate about a cell group to be analyzed, and the fluorescence intensity was measured about the cell group in this gate. […] The fluorescence intensity was measured using a fluorescence detector FL2 of the flow cytometer (optimum detection wavelength around 543 nm) capable of detecting the fluorescence wavelength of FAM. Regarding this measurement result, the analysis was performed using commercially available analysis software “FlowJo” (manufactured by TreeStar) to obtain mean fluorescence intensity (MFI) of the cell group to be measured. […]

Substance	MFI (mean fluorescence intensity)
Ac-SASASAG-FAM (Ac-SASASAG-{FAM}) [Example 2, construct: peptide 2 (SASASAG), N-terminus acetylated, with FAM bonded to the C-terminus amino acid residue]	19.2
Ac-SASAG-FAM [Example 1]	20.9
Ac-SASASASAG-FAM (Ac-SASASASAG-{FAM}) [Example 3, construct: peptide 3 (…), N-terminus acetylated, with FAM bonded to the C-terminus amino acid residue]	22.8
5(6)-carboxyfluorescein [Reference Example 1, reference compound]	10.9
